This is an account of results in US12622909B2, “Allosteric EGFR inhibitors and methods of use thereof” (Dana-Farber Cancer Institute, Inc., priority 2019, dated 2026).

For one test, the target named is EGFR L858R/T790M (Homo sapiens, UniProt P00533, L858R/T790M). Briefly: HTRF-based EGFR biochemical assay (L858R/T790M). The note with it: 100 μM ATP, enzyme 0.02 nM. As for the experimental part:
(§1) EGFR biochemical activity measurements were carried out using the homogeneous time-resolved fluorescence (HTRF) assay (Cisbio). Inhibitors and DMSO normalizations were first dispensed to empty black low-volume 384-well plates (Corning) with D300 digital liquid dispenser (HP). All reactions were carried out at room temperature and solutions were added to plates with a Multidrop Combi Reagent Dispenser (ThermoFisher). The reaction mixture (10 μL final volume) contained 1 μM tyrosine kinase peptide-biotin substrate and mutant EGFR in a reaction buffer (50 mM HEPES pH 7.0, 5 mM MgCl2, 1 mM MnCl2, 0.01% BSA, 2 mM TCEP, 0.1 mM NaVO4). […] Enzyme reaction solution (2× concentrations, 5 μL) was added to 384-well plates containing compounds and incubated for 30 mins. Enzyme reactions were initiated with the addition of 5 μL of ATP to a final concentration of 100 μM and reacted for 20 mins.

For another test, the target named is EGFR L858R (Homo sapiens, UniProt P00533, L858R). Put plainly: HTRF-based EGFR biochemical assay (L858R). The note with it: 100 μM ATP, enzyme 0.1 nM. As for the experimental part:
as §1, with “20 mins. Reactions were quenched with the addition of 10 μL of phospho-tyrosine antibody-Europium(III) cryptate (1-to-180 volume ratio) and Streptavidin-XL665 (46.7 nM) in EDTA-containing detection buffer, then incubated at room temperature for 1 hour, and read with a PHERAstar plate reader (excitation=337 nm, emission=620 nm and 665 nm).” for “20 mins.”

Test [1] concerns the target EGFR L858R/T790M mutant Ba/F3 cells (Homo sapiens, UniProt P00533, T790M/L858R, cells depend on it). Put plainly: Ba/F3 cell proliferation (Cell Titer Glo). The class given is cell-based, murine. To be noted: 72 hours. An excerpt:
All cell lines were maintained in RPMI 1640 (Cellgro; Mediatech Inc., Herndon, CA) supplemented with 10% FBS, 100 units/mL penicillin, 100 units/mL streptomycin. The EGFR I941R mutation was introduced via site directed mutagenesis using the Quick Change Site-Directed Mutagenesis kit (Stratagene; La Jolla, CA) according to the manufacturer's instructions. All constructs were confirmed by DNA sequencing. The constructs were shuttled into the retroviral vector JP1540 using the Cre-recombination system (Agilent Technologies, Santa Clara, CA). Ba/F3 cells were then infected with retrovirus per standard protocols, as described previously (Zhou, et al, Nature 2009). Stable clones were obtained by selection in puromycin (2 μg/ml).
Growth and inhibition of growth was assessed by the Cell Titer Glo assay (Promega, Madison, WI) and was performed according to the manufacturer's instructions. The Cell Titer Glo assay is a luminescence-based method used to determine the number of viable cells based on quantitation of the ATP present, which is directly proportional to the amount of metabolically active cells present. […] All experimental points were set up in triplicates in 384-well plates and all experiments were repeated at least three times. […] The curves were fitted using a non-linear regression model with a sigmoidal dose response.

Where [2] appears, read: in combination with 1 μg/ml cetuximab, read-out: Cell IC50 BaF3 L858R/T790M compound + cetuximab.
Where [3] appears, read: single agent, read-out: Cell IC50 EGFR BaF3 L858R/T790M.

Structures are written as SMILES. Where two headings read alike, the source gives them in different places.

Chain of EGFR L858R/T790M (P00533 25-1210 T790M/L858R): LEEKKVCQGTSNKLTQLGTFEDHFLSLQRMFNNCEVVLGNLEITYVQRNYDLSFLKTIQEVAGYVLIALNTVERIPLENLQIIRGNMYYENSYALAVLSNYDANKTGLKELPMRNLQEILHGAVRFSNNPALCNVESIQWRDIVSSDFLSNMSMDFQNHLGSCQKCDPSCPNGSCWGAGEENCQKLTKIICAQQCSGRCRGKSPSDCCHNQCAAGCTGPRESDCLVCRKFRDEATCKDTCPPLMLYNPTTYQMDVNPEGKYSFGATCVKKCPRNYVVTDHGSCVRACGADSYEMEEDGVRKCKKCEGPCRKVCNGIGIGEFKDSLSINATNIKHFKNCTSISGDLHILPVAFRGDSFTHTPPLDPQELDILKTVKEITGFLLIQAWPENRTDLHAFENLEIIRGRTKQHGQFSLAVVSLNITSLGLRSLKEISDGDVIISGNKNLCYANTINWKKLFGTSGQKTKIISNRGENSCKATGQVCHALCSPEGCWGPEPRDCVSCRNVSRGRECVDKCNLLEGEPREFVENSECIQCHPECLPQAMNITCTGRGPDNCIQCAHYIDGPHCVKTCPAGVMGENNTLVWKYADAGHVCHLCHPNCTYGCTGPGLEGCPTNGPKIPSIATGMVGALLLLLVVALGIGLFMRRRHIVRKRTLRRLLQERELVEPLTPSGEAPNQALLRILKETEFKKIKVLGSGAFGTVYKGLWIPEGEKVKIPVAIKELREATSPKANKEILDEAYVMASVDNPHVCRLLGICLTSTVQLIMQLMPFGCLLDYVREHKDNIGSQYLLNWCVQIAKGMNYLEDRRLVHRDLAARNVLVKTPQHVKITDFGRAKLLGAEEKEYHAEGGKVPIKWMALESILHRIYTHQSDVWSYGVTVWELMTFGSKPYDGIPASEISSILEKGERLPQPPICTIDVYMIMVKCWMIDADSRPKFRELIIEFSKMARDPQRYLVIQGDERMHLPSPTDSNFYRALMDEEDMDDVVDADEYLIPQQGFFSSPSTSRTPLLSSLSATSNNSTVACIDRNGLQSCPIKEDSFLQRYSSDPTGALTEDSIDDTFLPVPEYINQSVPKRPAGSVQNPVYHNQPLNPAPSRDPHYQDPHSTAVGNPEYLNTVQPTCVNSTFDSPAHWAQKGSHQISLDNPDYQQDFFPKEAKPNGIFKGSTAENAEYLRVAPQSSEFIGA
Chain of EGFR L858R/T790M mutant Ba/F3 cells (P00533 whole entry T790M/L858R): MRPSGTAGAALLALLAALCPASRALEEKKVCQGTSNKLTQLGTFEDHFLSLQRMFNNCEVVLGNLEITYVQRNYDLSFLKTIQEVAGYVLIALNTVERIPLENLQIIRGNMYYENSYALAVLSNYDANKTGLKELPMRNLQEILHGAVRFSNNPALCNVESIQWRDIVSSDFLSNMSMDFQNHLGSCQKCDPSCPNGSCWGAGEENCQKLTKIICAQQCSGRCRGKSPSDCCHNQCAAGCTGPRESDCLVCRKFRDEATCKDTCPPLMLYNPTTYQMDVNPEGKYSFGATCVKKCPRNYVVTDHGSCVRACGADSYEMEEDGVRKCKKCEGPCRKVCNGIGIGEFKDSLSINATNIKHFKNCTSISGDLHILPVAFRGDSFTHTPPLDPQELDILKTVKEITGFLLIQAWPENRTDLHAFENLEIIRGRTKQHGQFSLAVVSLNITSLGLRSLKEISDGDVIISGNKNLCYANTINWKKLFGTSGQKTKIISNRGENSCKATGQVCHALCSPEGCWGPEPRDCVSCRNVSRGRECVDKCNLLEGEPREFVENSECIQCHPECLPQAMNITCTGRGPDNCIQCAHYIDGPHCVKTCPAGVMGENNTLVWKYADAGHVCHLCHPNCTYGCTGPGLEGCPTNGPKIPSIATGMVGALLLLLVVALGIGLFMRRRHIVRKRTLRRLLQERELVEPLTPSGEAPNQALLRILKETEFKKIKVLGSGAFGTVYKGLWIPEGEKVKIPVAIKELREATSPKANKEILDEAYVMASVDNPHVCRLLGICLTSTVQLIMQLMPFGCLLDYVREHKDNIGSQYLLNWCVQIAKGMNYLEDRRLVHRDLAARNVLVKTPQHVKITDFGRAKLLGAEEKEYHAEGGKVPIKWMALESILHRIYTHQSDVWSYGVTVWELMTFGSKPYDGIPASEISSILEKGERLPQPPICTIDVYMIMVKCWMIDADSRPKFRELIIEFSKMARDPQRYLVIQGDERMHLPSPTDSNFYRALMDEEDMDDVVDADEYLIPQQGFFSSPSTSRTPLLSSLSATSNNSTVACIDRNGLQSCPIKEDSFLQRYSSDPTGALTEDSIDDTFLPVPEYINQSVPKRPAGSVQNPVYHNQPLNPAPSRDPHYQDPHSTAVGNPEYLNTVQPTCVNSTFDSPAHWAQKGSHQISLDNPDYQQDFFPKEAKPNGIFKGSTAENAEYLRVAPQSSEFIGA
Chain of EGFR L858R (P00533 25-1210 L858R): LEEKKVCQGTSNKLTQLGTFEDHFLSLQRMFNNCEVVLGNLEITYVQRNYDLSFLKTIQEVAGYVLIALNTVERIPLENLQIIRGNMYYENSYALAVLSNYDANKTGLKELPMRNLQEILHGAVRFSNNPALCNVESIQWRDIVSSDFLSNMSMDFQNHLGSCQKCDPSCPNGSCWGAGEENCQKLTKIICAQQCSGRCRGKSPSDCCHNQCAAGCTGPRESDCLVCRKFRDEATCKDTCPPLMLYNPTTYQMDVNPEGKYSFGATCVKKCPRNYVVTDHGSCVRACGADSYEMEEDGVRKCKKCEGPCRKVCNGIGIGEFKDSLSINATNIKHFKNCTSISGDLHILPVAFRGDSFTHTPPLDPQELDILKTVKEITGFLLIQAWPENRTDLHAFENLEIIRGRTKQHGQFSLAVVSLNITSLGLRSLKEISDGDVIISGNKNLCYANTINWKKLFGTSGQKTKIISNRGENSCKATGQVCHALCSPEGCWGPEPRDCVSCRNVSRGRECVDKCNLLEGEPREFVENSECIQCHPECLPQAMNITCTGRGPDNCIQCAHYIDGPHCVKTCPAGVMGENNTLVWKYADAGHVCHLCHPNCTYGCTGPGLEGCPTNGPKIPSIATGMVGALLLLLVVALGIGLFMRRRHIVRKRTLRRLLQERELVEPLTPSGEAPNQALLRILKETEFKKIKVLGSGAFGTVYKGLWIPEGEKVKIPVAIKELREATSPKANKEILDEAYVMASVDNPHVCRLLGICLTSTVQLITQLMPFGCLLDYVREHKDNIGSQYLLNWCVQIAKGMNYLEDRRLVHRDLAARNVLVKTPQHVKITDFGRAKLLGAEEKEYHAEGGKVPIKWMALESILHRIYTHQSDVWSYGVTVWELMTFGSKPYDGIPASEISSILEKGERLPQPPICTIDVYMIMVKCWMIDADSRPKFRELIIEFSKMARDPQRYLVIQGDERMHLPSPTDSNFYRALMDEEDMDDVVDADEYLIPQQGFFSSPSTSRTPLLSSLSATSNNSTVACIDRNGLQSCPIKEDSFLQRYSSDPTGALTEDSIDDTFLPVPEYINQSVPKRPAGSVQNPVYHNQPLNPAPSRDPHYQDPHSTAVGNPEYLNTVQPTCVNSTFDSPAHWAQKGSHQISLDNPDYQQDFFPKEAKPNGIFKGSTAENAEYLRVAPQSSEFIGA

With `CN1CCC(c2ccc(-c3ccc4c(F)cn(C(C(=O)Nc5nccs5)c5ccccc5)c(=O)c4c3)cc2)CC1` (centres unmarked) [Compound 036, 2-(4-Fluoro-7-(4-(1-methylpiperidin-4-yl)phenyl)-1-oxoisoquinolin-2(1H)-yl)-2-phenyl-N-(thiazol-2-yl)acetamide], the IC50 was 0.3 nM at EGFR L858R/T790M and 4 nM on EGFR L858R. In addition, the GI50 in test [1] (setting [2]) worked out at 23 nM; in test [1] (setting [3]), 920 nM.

Turning to `CN1CCN(c2ccc(-c3ccc4c(F)cn(C(C(=O)Nc5nccs5)c5ccccc5)c(=O)c4c3)cc2)CC1` (centres unmarked) [Compound 037, 2-(4-Fluoro-7-(4-(4-methylpiperazin-1-yl)phenyl)-1-oxoisoquinolin-2(1H)-yl)-2-phenyl-N-(thiazol-2-yl)-acetamide], the results for the 50% inhibitory concentration (IC50) at EGFR L858R/T790M and against EGFR L858R were 1 nM and 8 nM, respectively. The GI50 was 22 nM in test [1] (setting [2]) and 2650 nM in test [1] (setting [3]).

For the compound `CN1CCC(c2ccc(-c3ccc4ncn(C(C(=O)Nc5ccccn5)c5ccccc5)c(=O)c4c3)cc2)CC1` (centres unmarked) [Compound 038, 2-(6-(4-(1-Methylpiperidin-4-yl)-phenyl)-4-oxaquinazolin-3(4H)-yl)-2-phenyl-N-(pyridin-2-yl)acetamide], the IC50 was determined as 2 nM at EGFR L858R/T790M and 9 nM against EGFR L858R. For the same compound, the GI50 in test [1] (setting [2]) came out at 57 nM; in test [1] (setting [3]) it was 1860 nM.

In the case of `CN1CCN(c2ccc(-c3ccc4ncn(C(C(=O)Nc5ccccn5)c5ccccc5)c(=O)c4c3)cc2)CC1` (centres unmarked) [Compound 039, 2-(6-(4-(4-Methylpiperazin-1-yl)-phenyl)-4-oxoquinazolin-3(4H)-yl)-2-phenyl-N-(pyridin-2-yl)acetamide], the results for the IC50 on EGFR L858R/T790M and on EGFR L858R were 9 nM and 191 nM, respectively. The GI50 worked out at 76 nM in test [1] (setting [2]) and 1780 nM in test [1] (setting [3]).

In the case of `O=C(Nc1nccs1)C(c1ccccc1)n1ncc2ccc(Br)cc2c1=O` (centres unmarked) [Compound 041, 2-(7-Bromo-1-oxophthalazin-2(1H)-yl)-2-phenyl-N-(thiazol-2-yl)-acetamide], the figures for the 50% inhibitory concentration (IC50) against EGFR L858R/T790M and against EGFR L858R were 31 nM and more than 1000 nM, respectively. Further, the GI50 in test [1] (setting [2]) and in test [1] (setting [3]) was more than 10000 nM in each case.

For `CN1CCC(c2ccc(-c3ccc4cnn(C(C(=O)Nc5nccs5)c5ccccc5)c(=O)c4c3)cc2)CC1` (centres unmarked) [Compound 042, 2-(7-(4-(1-Methylpiperidin-4-yl)-phenyl)-1-oxophtharazin-2(1H)-yl)-2-phenyl-N-(thiazol-2-yl)acetamide], the IC50 against EGFR L858R/T790M was 4 nM; on EGFR L858R, 35 nM. Also, the GI50 in test [1] (setting [2]) was determined as 250 nM; in test [1] (setting [3]) it was 1460 nM.

On to `CN1CCN(c2ccc(-c3ccc4cnn(C(C(=O)Nc5nccs5)c5ccccc5)c(=O)c4c3)cc2)CC1` (centres unmarked) [Compound 043, 2-(7-(4-(4-Methylpiperazin-1-yl)-phenyl)-1-oxophthalazin-2(1H)-yl)-2-phenyl-N-(thiazol-2-yl)acetamide], for which the 50% inhibitory concentration (IC50) at EGFR L858R/T790M is 10 nM; on EGFR L858R, 90 nM. Also, the results for the GI50 in test [1] (setting [2]) and in test [1] (setting [3]) were 380 nM and 2160 nM, respectively.

With `Cc1nc2ccc(-c3ccc(C4CCN(C)CC4)cc3)cc2c(=O)n1C(C(=O)Nc1nccs1)c1ccccc1` (centres unmarked) [Compound 044, 2-(2-Methyl-6-(4-(1-methylpiperidin-4-yl)phenyl)-4-oxoquinazolin-3(4H)-yl)-2-phenyl-N-(thiazol-2-yl)acetamide], the concentration for half-maximal inhibition (IC50) against EGFR L858R/T790M is 283 nM; on EGFR L858R, more than 1000 nM. Moreover, the GI50 in test [1] (setting [2]) was found to be 790 nM; in test [1] (setting [3]) it was 2460 nM.

For `Cc1nc2ccc(-c3ccc(N4CCN(C)CC4)cc3)cc2c(=O)n1C(C(=O)Nc1nccs1)c1ccccc1` (centres unmarked) [Compound 045, 2-(2-Methyl-6-(4-(4-methylpiperazin-1-yl)phenyl)-4-oxoquinazolin-3(4H)-yl)-2-phenyl-N-(thiazol-2-yl)-acetamide], the IC50 at EGFR L858R/T790M is 297 nM; at EGFR L858R, more than 1000 nM. The GI50 in test [1] (setting [2]) and in test [1] (setting [3]) was 4100 nM each time.

`Cc1nc2cc(-c3ccc(C4CCN(C)CC4)cc3)ccc2c(=O)n1C(C(=O)Nc1nccs1)c1ccccc1` (centres unmarked) [Compound 054, 2-(2-Methyl-7-(4-(1-methylpiperidin-4-yl)phenyl)-4-oxoquinazolin-3(4H)-yl)-2-phenyl-N-(thiazol-2-yl)acetamide]: the results for the concentration for half-maximal inhibition (IC50) against EGFR L858R/T790M and at EGFR L858R were 42 nM and 91 nM, respectively. The GI50 worked out at 410 nM in test [1] (setting [2]) and 2480 nM in test [1] (setting [3]).

Take `Cc1nc2cc(-c3ccc(N4CCN(C)CC4)cc3)ccc2c(=O)n1C(C(=O)Nc1nccs1)c1ccccc1` (centres unmarked) [Compound 055, 2-(2-Methyl-7-(4-(4-methylpiperazin-1-yl)phenyl)-4-oxoquinazolin-3(4H)-yl)-2-phenyl-N-(thiazol-2-yl)-acetamide]: the values for the half-maximal inhibitory concentration (IC50) against EGFR L858R/T790M and against EGFR L858R were 79 nM and 264 nM, respectively. The GI50 in test [1] (setting [2]) was 1500 nM; in test [1] (setting [3]), 3940 nM.

For `CN1CCC(c2ccc(-c3cnc4c(=O)n(C(C(=O)Nc5nccs5)c5ccccc5)cnc4c3)cc2)CC1` (centres unmarked) [Compound 056, 2-(7-(4-(1-Methylpiperidin-4-yl)phenyl)-4-oxopyrido[3,2-d]pyrimidin-3(4H)-yl)-2-phenyl-N-(thiazol-2-yl)acetamide], the concentration for half-maximal inhibition (IC50) was 7 nM at EGFR L858R/T790M and 32 nM at EGFR L858R. Besides, the GI50 in test [1] (setting [2]) was found to be 410 nM; in test [1] (setting [3]) it was 3970 nM.

Regarding `CN1CCN(c2ccc(-c3cnc4c(=O)n(C(C(=O)Nc5nccs5)c5ccccc5)cnc4c3)cc2)CC1` (centres unmarked) [Compound 057, 2-(7-(4-(4-Methylpiperazin-1-yl)-phenyl)-4-oxopyrido[3,2-d]-pyrimidin-3(4H)-yl)-2-phenyl-N-(thiazol-2-yl)acetamide], the figures for the half-inhibitory concentration (IC50) at EGFR L858R/T790M and against EGFR L858R were 7 nM and 50 nM, respectively. Further, the figures for the GI50 in test [1] (setting [2]) and in test [1] (setting [3]) were 700 nM and 4730 nM, respectively.

With `CN1CCC(c2ccc(-c3cnc4ncn(C(C(=O)Nc5nccs5)c5ccccc5)c(=O)c4c3)cc2)CC1` (centres unmarked) [Compound 058, 2-(6-(4-(1-Methylpiperidin-4-yl)phenyl)-4-oxopyrido[2,3-d]-pyrimidin-3(4H)-yl)-2-phenyl-N-(thiazol-2-yl)acetamide], the IC50 came to 2 nM against EGFR L858R/T790M and 8 nM at EGFR L858R. Also, the GI50 turned out to be 12 nM in test [1] (setting [2]) and 930 nM in test [1] (setting [3]).

With `CN1CCN(c2ccc(-c3cnc4ncn(C(C(=O)Nc5nccs5)c5ccccc5)c(=O)c4c3)cc2)CC1` (centres unmarked) [Compound 059, 2-(6-(4-(4-Methylpiperazin-1-yl)-phenyl)-4-oxopyrido[2,3-d]-pyrimidin-3(4H)-yl)-2-phenyl-N-(thiazol-2-yl)acetamide], the IC50 against EGFR L858R/T790M turned out to be 8 nM; on EGFR L858R, 48 nM. Besides, the GI50 came to 84 nM in test [1] (setting [2]) and 1370 nM in test [1] (setting [3]).

Turning to `CN1CCC(c2ccc(-c3cc(F)c4ncn(C(C(=O)Nc5nccs5)c5ccccc5)c(=O)c4c3)cc2)CC1` (centres unmarked) [Compound 060, 2-(8-Fluoro-6-(4-(1-methylpiperidin-4-yl)phenyl)-4-oxoquinazolin-3-(4H)-yl)-2-phenyl-N-(thiazol-2-yl)-acetamide], the IC50 at EGFR L858R/T790M came out at 0.6 nM; against EGFR L858R, 4 nM. Moreover, the values for the GI50 in test [1] (setting [2]) and in test [1] (setting [3]) were 9 nM and 710 nM, respectively.

For `O=C(Nc1nccs1)C(c1cccnc1)n1cnc2ccc(Br)cc2c1=O` (centres unmarked) [Compound 062, 2-(6-Bromo-4-oxoquinazolin-3(4H)-yl)-2-(pyridin-3-yl)-N-(thiazol-2-yl)-acetamide], the figures for the half-maximal inhibitory concentration (IC50) at EGFR L858R/T790M and against EGFR L858R were 220 nM and more than 1000 nM, respectively. Further, the GI50 in test [1] (setting [2]) and in test [1] (setting [3]) was more than 10000 nM throughout.
